Results reported in patent publication US7902375B2, “5-phenyl-4-methyl-thiazol-2-yl-amine derivatives as inhibitors of phosphatidylin ositol 3 kinase enzymes (PI13) for treatment of inflammatory diseases” (Novartis AG, priority 2003, dated 2011).

Target: T1, human PI3Kγ (recombinant GST-p110γ) (Homo sapiens, UniProt P48736)
T1 construct: Residues 38-1102 of human PI3Kγ are subcloned into the BamH1 and EcoR1 sites of the transfer vector pAcG2T; made in house; host or cells: Sf9 (Spodoptera frugiperda) insect cells, baculovirus
Assay: in vitro kinase assay (Scintillation Proximity Assay), PI3K gamma isoform
Assay type: biochemical
Conditions: SPA, phosphatidylinositol substrate, 60 minutes room temperature
Procedure: To express the recombinant protein, Sf9 (Spodoptera frugiperda 9) insect cells are routinely maintained at densities between 3×10^5 and 3×10^6 cells/ml in serum containing TNMFH medium (Sigma). Sf9 cells, at a density of 2×10^6 are infected with human GST-PI3KγΔ34 baculovirus at a multiplicity of infection (m.o.i.) of 1 for 72 hours. The infected cells are harvested by centrifugation at 1400 g for 4 minutes at 4° C. and the cell pellets are frozen at −80° C. […] Cell lysate (supernatant) is added (usually as 50 ml lysate to 1 ml GST resin in 50 ml tubes) and gently rotated on a mixer at 4° C. for 2-3 hours. The unbound flow through sample is collected by centrifugation at 1000 g for 5 minutes at 4° C. using a DENLEY™ centrifuge. The 1 ml GST resin containing bound material is transferred to a 15 ml FALCON™ centrifuge tube for subsequent washing and elution steps. Firstly a series of 3 cycles of washings (mixing by gentle inversion) is performed with 15 ml ice cold wash Buffer A (50 mM Tris-HCl pH 7.5, 1% Triton X-100, 2 mM DTT) interspersed with centrifugation at 1000 g for 5 minutes at 4° C. A final single wash step is performed with 15 ml ice cold wash Buffer B (50 mM Tris-HCl pH 7.5, 2 mM DTT) and then centrifuged at 1000 g for 5 minutes at 4° C. The washed GST resin is finally eluted with 4 cycles of 1 ml ice cold elution buffer (50 mM Tris-HCl pH 7.5, 10 mM reduced glutathione, 2 mM DTT, 150 mM NaCl, 1 mM NaF, 50% ethylene glycol and protease inhibitors) interspersed with centrifugation at 1000 g for 5 minutes at 4° C. Samples are aliquoted and stored at −20° C.
An in vitro kinase assay was established that measures the transfer of the terminal phosphate of adenosine triphosphate to phosphatidylinositol. The kinase reaction is performed in a white 96 well microtitre plate as a Scintillation Proximiy Assay. […] The reaction is started by the addition of 20 μl of enzyme mix (40 mM Tris, 200 mM NaCl, 2 mM EGTA containing recombinant GST-p110γ).

T1 sequence (P48736 38-1102): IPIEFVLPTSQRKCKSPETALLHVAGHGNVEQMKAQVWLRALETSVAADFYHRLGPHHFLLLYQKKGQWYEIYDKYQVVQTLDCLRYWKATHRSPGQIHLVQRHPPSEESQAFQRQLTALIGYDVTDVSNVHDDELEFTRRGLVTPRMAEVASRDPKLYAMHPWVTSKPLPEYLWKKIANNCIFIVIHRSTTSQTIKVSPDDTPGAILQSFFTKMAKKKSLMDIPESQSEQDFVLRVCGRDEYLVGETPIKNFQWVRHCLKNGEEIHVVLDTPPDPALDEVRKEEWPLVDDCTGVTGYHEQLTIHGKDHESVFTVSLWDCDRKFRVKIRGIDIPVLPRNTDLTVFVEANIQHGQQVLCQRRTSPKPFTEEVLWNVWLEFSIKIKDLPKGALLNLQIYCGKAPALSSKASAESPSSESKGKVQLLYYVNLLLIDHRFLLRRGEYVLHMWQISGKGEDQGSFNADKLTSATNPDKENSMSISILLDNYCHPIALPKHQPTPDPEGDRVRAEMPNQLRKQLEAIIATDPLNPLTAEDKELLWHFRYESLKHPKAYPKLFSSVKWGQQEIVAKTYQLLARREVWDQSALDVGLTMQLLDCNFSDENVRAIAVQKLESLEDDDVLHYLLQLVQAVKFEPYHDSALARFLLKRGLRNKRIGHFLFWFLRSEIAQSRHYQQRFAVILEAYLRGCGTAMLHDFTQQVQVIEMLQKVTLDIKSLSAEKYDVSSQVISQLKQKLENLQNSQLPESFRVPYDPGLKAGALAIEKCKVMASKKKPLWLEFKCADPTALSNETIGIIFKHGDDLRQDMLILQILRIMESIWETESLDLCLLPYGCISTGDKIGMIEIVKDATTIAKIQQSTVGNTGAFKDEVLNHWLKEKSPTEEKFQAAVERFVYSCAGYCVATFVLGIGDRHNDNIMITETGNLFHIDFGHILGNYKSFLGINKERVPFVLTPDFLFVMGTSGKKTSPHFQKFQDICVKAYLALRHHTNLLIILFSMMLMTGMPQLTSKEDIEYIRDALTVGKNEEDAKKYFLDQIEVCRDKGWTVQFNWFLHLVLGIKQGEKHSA

SMILES	IC50
Cc1nc(NC(=O)NCc2nnn[nH]2)sc1-c1ccc(S(C)(=O)=O)c(F)c1 [Example 124, 1-[5-(3-Fluoro-4-methanesulfonyl-phenyl)-4-methyl-thiazol-2-yl]-3-(1H-tetrazol-5-ylmethyl)-urea]	0.007 µM
CCn1nnc(CNC(=O)Nc2nc(C)c(-c3ccc(S(C)(=O)=O)c(F)c3)s2)n1 [Example 131, 1-(2-Ethyl-2H-tetrazol-5-ylmethyl)-3-[5-(3-fluoro-4-methanesulfonyl-phenyl)-4-methyl-thiazol-2-yl]-urea]	0.017 µM
Cc1nc(NC(=O)NCC(=O)N(C)C(C)C)sc1-c1ccc(S(C)(=O)=O)c(F)c1 [Example 138, 2-{3-[5-(3-Fluoro-4-methanesulfonyl-phenyl)-4-methyl-thiazol-2-yl]-ureido)-N-isopropyl-N-methyl-acetamide]	0.018 µM
CCC(C)(C)NC(=O)CCNC(=O)Nc1nc(C)c(-c2ccc(S(C)(=O)=O)c(F)c2)s1 [Example 145, N-(1,1-Dimethyl-propyl)-3-{3-[5-(3-fluoro-4-methanesulfonyl-phenyl)-4-methyl-thiazol-2-yl]-ureido}-propionamide]	0.017 µM
Cc1nc(NC(=O)NCCc2nnn(C(C)C)n2)sc1-c1ccc(S(C)(=O)=O)c(F)c1 [Example 150, 1-[5-(3-Fluoro-4-methanesulfonyl-phenyl)-4-methyl-thiazol-2-yl]-3-[2-(2-isopropyl-2H-tetrazol-5-yl)-ethyl]-urea]	0.056 µM
